The text below walks through data of ChEMBL document CHEMBL1201862, “PubChem BioAssay data set” (2004).

Test systems include A498; A549; CAKI-1; CCRF-CEM; EKVX; K562; LOX IMVI; M14; MOLT-4; NCI-H226; NCI-H460; OVCAR-8; SK-OV-3; SNB-75; SW-620; T47D; TK-10; U-251; ACHN; MDA-MB-231.
Holding throughout (assay): NCI tumour cell line growth inhibition, 48 h

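Assay format: 96-well plates, 48-hour exposure. GI50: concentration for 50% inhibition of growth.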 The source made the active and inactive calls. Cut-off read from the data, not from the text of the source: active = GI50 up to about 1.1 µM and inactive = higher. A value given as a limit tells only on which side of the number the result lay.

With `COc1nc2c(c(=O)n1C)N[C@@H]1[C@@H](O)[C@H](O)CO[C@@H]1N2`, the GI50 in the test with A498, in the test on A549, with CAKI-1, with CCRF-CEM, in the test with EKVX and in the test with K562 was > 100 µM (inactive) throughout. The GI50 in the test on LOX IMVI, in the test on M14, with MOLT-4, in the test with NCI-H226, with NCI-H460 and with OVCAR-8 was > 100 µM (inactive) throughout. The GI50 with SK-OV-3, in the test on SNB-75, in the test with SW-620, in the test with T47D, in the test on TK-10 and in the test with U-251 was > 100 µM (inactive) each time.

For `COP1(=O)OCc2cnccc2O1` (stereo not given), the GI50 with A549, with ACHN, in the test with CAKI-1, in the test with EKVX, in the test with K562 and in the test with LOX IMVI was > 100 µM (inactive) throughout. The GI50 in the test on M14, with MDA-MB-231, in the test on MOLT-4, with NCI-H226, in the test on NCI-H460 and with OVCAR-8 was > 100 µM (inactive) each time. Moreover, the GI50 with SK-OV-3, in the test with SNB-75, with SW-620, with T47D, with TK-10 and in the test on U-251 was > 100 µM (inactive) each time.

For `O=C(CNc1cccc([N+](=O)[O-])c1)Nn1c(-c2ccccc2)nc2ccccc2c1=O`, the GI50 in the test with A498 was 0.0112 µM (active); with A549, 1.74 µM (inactive); in the test on ACHN, 1.4 µM (inactive); in the test on CCRF-CEM it was 0.316 µM (active); with EKVX it was 2.41 µM (inactive); with K562, 0.528 µM (active). Further, the GI50 in the test on LOX IMVI is 0.221 µM (active); in the test with MDA-MB-231 it was 0.776 µM (active); in the test with MOLT-4 it was 0.246 µM (active); in the test with NCI-H226, 0.2 µM (active); with NCI-H460, 0.555 µM (active); with OVCAR-8 it was 1.59 µM (inactive). The GI50 with SK-OV-3 is 0.573 µM (active); in the test on SW-620, 0.33 µM (active); in the test with T47D it was 2.17 µM (inactive); in the test on TK-10 it was 0.363 µM (active); in the test with U-251, 1.05 µM (active).

Turning to `CCOC(=O)c1nc2ccccc2nc1Oc1ccc(C#N)cc1`, the GI50 in the test with A498, in the test with A549, in the test on ACHN, in the test on CCRF-CEM, with EKVX and with K562 was > 100 µM (inactive) throughout. Also, the GI50 in the test with LOX IMVI is > 100 µM (inactive); in the test on M14, > 100 µM (inactive); with MDA-MB-231 it was > 10 µM (inactive); in the test with MOLT-4, > 100 µM (inactive); in the test on NCI-H226 it was > 100 µM (inactive); with NCI-H460 it was > 100 µM (inactive). Further, the GI50 in the test with OVCAR-8, in the test on SK-OV-3, in the test with SW-620, with T47D, in the test on TK-10 and with U-251 was > 100 µM (inactive) each time.

In the case of `N#Cc1sc2c(c1OC(=O)c1ccccc1)c(=O)n(-c1ccccc1)c(=S)n2-c1ccccc1`, the GI50 in the test on A549 was 29.3 µM (inactive); with CAKI-1, 35.9 µM (inactive); in the test with CCRF-CEM, 19.8 µM (inactive); with EKVX it was 28.6 µM (inactive); with K562, 27.6 µM (inactive); in the test with LOX IMVI it was 19.8 µM (inactive). Also, the GI50 with M14 is 18.3 µM (inactive); with MDA-MB-231, 23.9 µM (inactive); in the test with MOLT-4, 20.6 µM (inactive); with NCI-H226 it was 18.1 µM (inactive); in the test with NCI-H460, 30.3 µM (inactive); in the test on OVCAR-8, 36.5 µM (inactive). The GI50 is 35.6 µM (inactive) in the test with SK-OV-3; > 10 µM (inactive) in the test with SNB-75; 28.8 µM (inactive) in the test with SW-620; 16.2 µM (inactive) in the test on T47D; 28.8 µM (inactive) with TK-10; 20.1 µM (inactive) in the test with U-251.

Consider `CCC(C)N1CN(c2ccccc2)C2(CCN(CCCSc3ccc(F)cc3)CC2)C1=O` (stereo not given), for which the GI50 was 3.94 µM (inactive) in the test on A549; 3.15 µM (inactive) in the test on ACHN; 3.45 µM (inactive) in the test with CAKI-1; 2.44 µM (inactive) in the test with CCRF-CEM; 3.33 µM (inactive) with EKVX; 2.22 µM (inactive) in the test with K562. For the same molecule, the GI50 was 3.05 µM (inactive) in the test with LOX IMVI; 2.34 µM (inactive) with M14; 0.296 µM (active) in the test on MDA-MB-231; 3 µM (inactive) in the test on MOLT-4; 4.34 µM (inactive) in the test with NCI-H226; 6.17 µM (inactive) with OVCAR-8. In addition, the GI50 with SK-OV-3 was 4.92 µM (inactive); in the test with SNB-75, 11.1 µM (inactive); in the test with SW-620, 4.06 µM (inactive); in the test on T47D, 2.99 µM (inactive); in the test with TK-10 it was 3.27 µM (inactive); with U-251, 3.72 µM (inactive).

Take `CCN1CCN=C2c3cc(OC)ccc3Nc3c([N+](=O)[O-])ccc1c32`: the GI50 is 0.667 µM (active) in the test on A549; 0.485 µM (active) in the test with CAKI-1; 0.571 µM (active) with CCRF-CEM; 2.12 µM (inactive) in the test with EKVX; 0.473 µM (active) in the test on K562; 1 µM (active) in the test with M14. For the same molecule, the GI50 in the test with MDA-MB-231 is 0.736 µM (active); in the test with MOLT-4, 0.279 µM (active); with OVCAR-8, 0.621 µM (active); in the test on SK-OV-3, 2.43 µM (inactive); in the test on SNB-75, 1.68 µM (inactive); with SW-620, 0.472 µM (active). Further, the GI50 was 3.32 µM (inactive) with T47D and 3.75 µM (inactive) in the test on TK-10.

For the molecule `Oc1nc2nc3ccccc3nc2nc1O`, the GI50 in the test on A549, with ACHN, in the test on CAKI-1, with CCRF-CEM, with EKVX and in the test with K562 was > 100 µM (inactive) in each case. For the same molecule, the GI50 in the test with LOX IMVI, in the test on M14, with MDA-MB-231, in the test with MOLT-4, with NCI-H226 and in the test with NCI-H460 was > 100 µM (inactive) throughout. Also, the GI50 with OVCAR-8 was > 100 µM (inactive); with SK-OV-3, > 100 µM (inactive); in the test with SNB-75 it was 75.2 µM (inactive); in the test with SW-620, > 100 µM (inactive); with T47D, > 100 µM (inactive); with TK-10, > 100 µM (inactive). For the same molecule, in the test on U-251, the GI50 was > 100 µM (inactive).
